# Tests used:
# [1] = target: T1, GSNOR (Mus musculus, UniProt P28474); experiment: Plasma GSNOR activity (GSNO-dependent NADH consumption) after PT-stroke in aged female mice; format: in vivo; settings: 2.5 mg/kg after PT-stroke, P<0.01
# T1 construct: Plasma was isolated from freshly drawn blood after cardiac puncture under deep isoflurane anesthesia; from tissue; host or cells: plasma of aged female C57/B6-background mice after PT-stroke
# Method: Plasma was isolated from freshly drawn blood after cardiac puncture under deep isoflurane anesthesia, and mice were sacrificed to collect brain tissue. Plasma and brain tissue samples were snap-frozen until assay.
# A method of GSNO dependent NADH consumption was used to determine GSNOR activity as reported. Briefly, brain tissue was homogenized in a buffer containing 50mM Tris-HCl (pH 8.0), 150 mM NaCl, 1-mM EDTA, 0.1% Triton X-100 and 1:100 protease inhibitor cocktail and centrifuged (10, 000 g×10 minutes at 4° C.) to obtain supernatant. […] The consumption of NADH was monitored with fluorescence spectrophotometry at an excitation wavelength of 340 nm and emission at 460 nm. GSNOR activity was calculated by subtracting the rate of NADH consumption incubated in the presence of GSNO minus the rate of NADH consumption without GSNO in samples.
# A sex difference was found in the basal level of plasma GSNOR activity, showing higher GSNOR activity in female mice compared to age-matched males (P<0.05; N=6/gp) as shown in FIG. 3A. […] Statistical significance was determined at P<0.05 and were indicated with asterisks or different letters indicating statistically different Means.
# [2] = system: ischemia/reperfusion; settings: 5 mg/kg at 2 hr post ischemia/reperfusion, daily for 3 days or 2 weeks; cited from earlier work
# [3] = system: PT-stroke (thrombotic occlusion of distal MCA trunk); experiment: Photothrombotic (PT) model of stroke in aged mice, infarct volume by TTC staining; format: in vivo
# Method: Aged mice (16 ±1-mo) were subjected to PT-stroke via a novel lateral side surgical approach without craniotomy resulting in the thrombotic occlusion of distal main trunk of MCA. For the purpose, mice were anesthetized with isofluorane, prepared for surgery, and rose Bengal dye (50 mg/kgbwt in 200 uL of 1× sterile PBS) was intravenously (IV) infused. Mice were immediately put on a robotic stereotaxic frame, the head was rotated to face right side up, and the skull was exposed. The distal trunk of MCA was visualized underneath the skull bone (without craniotomy) using a 532 nm laser source (8-mm beam diameter; 4.5 mW) integrated to an ID8-iris (ThorLabs, NJ, USA). The MCA region above the zygomatic arc was exposed with the laser for 20-min from a distance of ˜2-3-mm. Following 20-min laser exposure, thrombotic occlusion of the distal trunk of MCA was confirmed using laser doppler flowmeter showing >60% drop in CBF and finally the lateral side skin wound was closed. All mice under C57/B6 background were bred, housed, used and related experimental procedures were performed in accordance with the approved protocol of Institutional Animal Care and Use Committees (IACUCs) of St. Joseph's Hospital and Medical Center (SJHMC), and Augusta University, Augusta, Ga. Effect of stroke on GSNOR expression/activity was first determined in a clinically relevant partially-humanized TE-stroke, embolic middle cerebral artery occlusion (eMCAo) model in aged (16±1-mo-old) male mice. Next, an effective dose-finding study of GRI therapy (stroke injury size) was performed in aged (16±1-mo-old) male mice in a photothrombotic (PT) model of stroke with the reduction in infarct volume as the primary outcome. The safety and benefits of the best dose of GRI therapy in reducing infarct volume as the primary outcome was also confirmed in reproductively senescent aged (16±1-mo-old) female mice subjected to PT-stroke. To test the benefits of GRI therapy during permanent ischemia, GRI was also tested in adult (14±1-weeks) mice of both sexes subjected to permanent model of middle cerebral artery ligation (pMCAL). All females were ovariectomized at the age of 12-weeks, i.e., 2-weeks prior to stroke surgery. A 2×2 factorial design was adopted [2 Sexes (MALE vs. FEMALE)×2 GRI (NO vs. YES)] such that all 4 groups of both sexes were subjected to pMCAL followed by randomization into two different treatment cohorts: GRI therapy or equal volume of Vehicle treatment. All mice were tested for behavioral outcome on a narrow beam test, relative CBF measurement using laser speckle contrast imaging (LSCI) and infarct volume size. […] Outcome measures such as brain tissue oxygenation (PbtO2), acute inflammatory genes response, neurological deficit, edema as percent (%) swelling and infarct volumes were assessed. […]
# T1 sequence (P28474 whole entry): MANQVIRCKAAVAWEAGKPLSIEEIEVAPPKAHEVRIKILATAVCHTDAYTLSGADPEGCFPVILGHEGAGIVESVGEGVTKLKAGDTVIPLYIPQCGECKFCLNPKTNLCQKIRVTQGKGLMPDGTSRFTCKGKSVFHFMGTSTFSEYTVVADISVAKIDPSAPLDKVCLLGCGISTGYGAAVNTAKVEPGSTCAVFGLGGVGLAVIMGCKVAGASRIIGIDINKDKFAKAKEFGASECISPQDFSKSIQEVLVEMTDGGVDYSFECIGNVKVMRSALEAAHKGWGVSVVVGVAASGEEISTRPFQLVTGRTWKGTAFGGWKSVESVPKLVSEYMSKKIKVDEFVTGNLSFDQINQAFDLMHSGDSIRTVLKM
structure (smiles),measurement,setting,value
"Cc1cc(C(N)=O)ccc1-n1c(CCC(=O)O)ccc1-c1ccc(-n2ccnc2)cc1 [GRI therapy, N6022]",post-stroke plasma GSNOR activity,[1],significantly inhibited the post-stroke plasma GSNOR activity
same,"Neurological score, survival rate and motor/cognitive skills",[2],improved
same,stroke injury (infarct volume) vs vehicle,"[3]; aged female mice, 2.5 mg/kg, P<0.05, N=10/gp",effective in reducing the stroke injury significantly
same,neuroprotective effect (absolute infarct volume) across doses,"[3]; aged male mice, 1, 2.5, 5.0 and 10 mg/kg IV 1 h after PT-stroke, N=8/gp",dose-dependent neuroprotective effect
same,GRI dose from which the neuroprotective effect plateaus,"[3]; aged male mice, IV 1 h after PT-stroke",> 2.5 mg/kg
same,infarct/injury progression vs vehicle (TTC),"[3]; aged male mice, IV 1 h after PT-stroke, P<0.0001",significantly protected against the stroke and prevented the infarct/injury progression
